The assay has as its target T1, mouse TRPM7 (Mus musculus, UniProt Q923J1).
T1 construct: expressed in transfected cells; host or cells: HEK 293T cells (CRL-3216; ATCC), transient transfection with jetOPTIMUS, co-transfected eGFP as a separate plasmid
As to the kind of experiment: Whole-cell patch clamp of TRPM7 current (IM7) in HEK 293T cells overexpressing mouse TRPM7. The assay is classed as cell-based. As for the experimental part:
To overexpress TRPM7, HEK 293T cells were plated at a density of 500,000 cells per well (day 0), transfected at 80–90% confluency (day 1), and were patched 24–36 h after transfection (day 2). TRPM7 overexpression was performed using WT mouse TRPM7 (2.5 µg plasmid DNA; [Desai et al., 2012]) and jetOPTIMUS DNA Transfection Reagent (101000006; Polyplus). To enhance the selection rate of TRPM7-overexpressing cells, eGFP (#22152; Addgene) was included at a 1:10 dilution (0.25 µg) and only GFP-positive cells were patched.
Whole-cell patch clamp electrophysiology was performed as described previously ([Schappe et al., 2022]). Briefly, the external solution contained (in mM) 140 Na-methanesulfonate, 5 Cs-gluconate, 2.5 CaCl2, and 10 HEPES, pH 7.4 (adjusted with NaOH), at an osmolality of 280–290 mOsm/kg. The internal pipette solution contained (in mM) 115 Cs-gluconate, 3 NaCl, 0.75 CaCl2, 10 HEPES, 10 HEDTA, 1.8 Cs4-BAPTA, and 2 Na2ATP, pH 7.3 (adjusted with CsOH), at an osmolality of 273 mOsm/kg. Intracellular free [Ca^2+] was estimated to be ∼100 nM using the online WEBMAXC standard calculator at https://somapp.ucdmc.ucdavis.edu/pharmacology/bers/maxchelator/webmaxc/webmaxcS.htm ([Bers et al., 2010]). Recordings were captured in pCLAMP 9 (Molecular Devices) using a 400-ms ramp protocol from −100 to +100 mV and a holding potential of 0 mV. Sampling was performed at 10 kHz with a 5 kHz low-pass band filter using an Axopatch 200B amplifier (Molecular Devices). All electrophysiology experiments were conducted at RT (∼23°C). […] Similarly, the minimum current for each inhibitor dose is taken as the stable minimum current observed after the drug has had time to exert an effect and after the flow-driven transient increase has subsided.
Data were analyzed using Microsoft Excel, Prism 9.5 (GraphPad Software), and Origin Pro 7.5 (OriginLab). Chemical structures were created using ChemDraw Professional 20.1.1 (PerkinElmer). Electrophysiology traces were plotted using Origin Pro 7.5, and the remaining data were plotted and statistically tested using Prism. Outliers were determined using the robust regression and outlier removal (ROUT) function within Prism. IC50 values were determined by plotting the percentage of maximum current observed as a function of applied drug concentration. A non-linear regression was fit using a standard Hill slope of −1.0 and the model: Y=100/[1+([Inhibitor]/IC50)]. Where appropriate, data are presented as individual values; otherwise the sample sizes and precision measures are indicated in the figure legends. P values of <0.05 were considered statistically significant.

T1 sequence (Q923J1 whole entry): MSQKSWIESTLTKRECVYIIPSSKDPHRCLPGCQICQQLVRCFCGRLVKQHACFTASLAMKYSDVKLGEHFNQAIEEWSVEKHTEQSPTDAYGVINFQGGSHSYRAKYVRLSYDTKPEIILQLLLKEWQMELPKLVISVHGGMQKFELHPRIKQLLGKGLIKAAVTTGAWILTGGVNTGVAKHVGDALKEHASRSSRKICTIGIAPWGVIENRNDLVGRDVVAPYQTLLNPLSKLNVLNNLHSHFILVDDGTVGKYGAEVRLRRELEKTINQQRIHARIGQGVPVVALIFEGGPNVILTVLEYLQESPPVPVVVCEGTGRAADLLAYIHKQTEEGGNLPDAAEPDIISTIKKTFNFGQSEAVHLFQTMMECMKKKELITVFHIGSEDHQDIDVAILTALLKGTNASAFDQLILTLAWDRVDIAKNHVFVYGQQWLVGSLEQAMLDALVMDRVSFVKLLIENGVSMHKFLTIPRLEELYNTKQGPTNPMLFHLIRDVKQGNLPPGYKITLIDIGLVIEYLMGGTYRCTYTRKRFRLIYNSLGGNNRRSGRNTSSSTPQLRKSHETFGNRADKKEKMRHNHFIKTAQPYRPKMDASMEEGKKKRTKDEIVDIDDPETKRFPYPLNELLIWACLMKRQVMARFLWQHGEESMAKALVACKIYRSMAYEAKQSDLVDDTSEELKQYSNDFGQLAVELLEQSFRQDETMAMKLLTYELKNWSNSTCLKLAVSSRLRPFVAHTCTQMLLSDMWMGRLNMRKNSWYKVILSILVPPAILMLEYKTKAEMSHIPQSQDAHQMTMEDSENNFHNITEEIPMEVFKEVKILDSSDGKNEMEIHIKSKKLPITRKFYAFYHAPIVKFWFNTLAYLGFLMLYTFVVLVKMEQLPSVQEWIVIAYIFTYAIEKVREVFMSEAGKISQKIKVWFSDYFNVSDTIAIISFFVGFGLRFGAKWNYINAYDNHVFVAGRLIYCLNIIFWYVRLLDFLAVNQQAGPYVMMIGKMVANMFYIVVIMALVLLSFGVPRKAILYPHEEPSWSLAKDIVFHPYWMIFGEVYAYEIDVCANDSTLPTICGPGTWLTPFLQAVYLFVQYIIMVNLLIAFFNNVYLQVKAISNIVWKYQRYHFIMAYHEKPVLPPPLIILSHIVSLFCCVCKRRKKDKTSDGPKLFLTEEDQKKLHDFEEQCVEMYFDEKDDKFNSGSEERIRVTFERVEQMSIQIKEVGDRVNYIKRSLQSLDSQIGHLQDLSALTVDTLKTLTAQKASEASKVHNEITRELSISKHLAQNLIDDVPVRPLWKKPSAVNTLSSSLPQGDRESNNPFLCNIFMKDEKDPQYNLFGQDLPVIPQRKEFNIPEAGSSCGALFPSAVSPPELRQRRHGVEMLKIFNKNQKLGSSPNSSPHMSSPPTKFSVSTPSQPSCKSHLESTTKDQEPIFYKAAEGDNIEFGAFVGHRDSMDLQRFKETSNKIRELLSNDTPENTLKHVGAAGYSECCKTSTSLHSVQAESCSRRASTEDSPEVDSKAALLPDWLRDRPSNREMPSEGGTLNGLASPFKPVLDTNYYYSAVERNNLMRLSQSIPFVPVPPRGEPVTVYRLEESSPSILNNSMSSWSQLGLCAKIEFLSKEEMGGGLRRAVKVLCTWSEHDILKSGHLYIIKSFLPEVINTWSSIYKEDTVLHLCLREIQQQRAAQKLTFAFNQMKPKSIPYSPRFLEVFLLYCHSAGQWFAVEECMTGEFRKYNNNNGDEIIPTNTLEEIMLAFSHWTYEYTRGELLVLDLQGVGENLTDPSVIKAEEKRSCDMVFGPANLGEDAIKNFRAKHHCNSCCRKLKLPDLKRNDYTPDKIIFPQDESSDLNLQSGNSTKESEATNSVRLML

As to `CCCCCCCCc1ccc([C@@H]2CC[C@@](N)(CO)C2)cc1` [VPC01091.4, ((1S,3R)-1-amino-3-(4-octylphenyl)cyclopentyl)methanol], where the note is “5 µM”, the “Effect on whole-cell TRPM7 current (IM7)” value is “current inhibition”. In addition, the IC50 (peak current at +100 mV, HEK 293T overexpressing mouse TRPM7, Hill slope -1.0, read-out: IC50 for inhibition of TRPM7 current (IM7)) turned out to be 665 nM.

These data come from article PMC10635799, “Analogs of FTY720 inhibit TRPM7 but not S1PRs and exert multimodal anti-inflammatory effects” (The Journal of General Physiology, 2023).
